Data taken from patent publication US5144010A, “Method of producing monoclonal auto-anti-idiotypic antibodies” (The Trustees of Columbia University in the City of New York, priority 1989, dated 1992).

Target: T1, adenosine receptor (Rattus norvegicus, UniProt P25099)
T1 sequence (P25099 1-326): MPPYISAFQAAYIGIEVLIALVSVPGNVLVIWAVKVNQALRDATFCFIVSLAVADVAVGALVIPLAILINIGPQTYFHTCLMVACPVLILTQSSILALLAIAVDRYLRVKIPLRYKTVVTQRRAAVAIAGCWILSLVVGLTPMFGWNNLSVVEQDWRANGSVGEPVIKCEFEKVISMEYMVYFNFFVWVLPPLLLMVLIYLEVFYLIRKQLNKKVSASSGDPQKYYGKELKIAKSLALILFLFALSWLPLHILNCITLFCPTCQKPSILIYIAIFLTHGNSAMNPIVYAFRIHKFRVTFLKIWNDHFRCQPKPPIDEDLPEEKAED
Experiment: Binding of monoclonal anti-idiotypic antibodies to adenosine receptor preparation and rabbit anti-CPA
Settings: adenosine receptor preparation from rat brain
Description: Protocols for immunization and fusion were essentially identical to that described previously for BisQ in Example 2. Immunization was effected with the RSA conjugate, but the BSA conjugate is just as satisfactory. Screening was conducted with the BSA conjugate and with a specifically purified rabbit antibody raised by immunization with the BSA conjugate. Specifically purified antibody was prepared in a manner analogous to that described for anti-BisQ antibody (1) except that the immunoadsorbent was N^6 -(carboxypentamethylene) adenosine linked to aminohexylsepharose (Pharmacia).

inhibition of the reaction of monoclonal anti-idiotypic antibodies with adenosine receptor: could be inhibited
SMILES: OC[C@H]1O[C@@H](n2cnc3c(NC4CCCCC4)ncnc32)[C@H](O)[C@@H]1O [N^6 -cyclohexyladenosine]
